Entries after “also recorded” stand apart in the source; their conditions may differ. Where two headings read alike, the source gives them in different places.
How the values were obtained:
[1] = tested on: traumatic brain injury (TBI) in mice; assay: mouse traumatic brain injury (TBI) model; conditions: in vivo
Method: Animals and traumatic brain injury (TBI): TBI is performed with a controlled closed skull injury model as described in Talley-Watts et al. 2012 (J. Neurotrauma 30, 55-66). Following the method described therein, a pneumatic impact device is used to generate a moderate TBI leaving the skull and dura matter intact. To achieve this, C57BL/6 mice are anesthetized with isoflurane (3% induction, 1% maintenance) in 100% oxygen. A body temperature of 37° C. is maintained using a temperature-controlled heated surgical table. A small midline incision is made on the scalp using aseptic surgical techniques. A 5 mm stainless steel disc is positioned on the skull and fixed using superglue on the right parietal bone between bregma and lamda over the somatosensory cortex. The mouse is then positioned on a stage directly under the pneumatic impact tip. […] Mice are placed in a Thermo-Intensive Care Unit (Braintree Scientific model FV-1; 37° C.; 27% O2) and monitored until fully awake and moving freely. […]
Western Blot Analysis for GFAP: At selected survival times, mice are anesthetized under isoflurane and sacrificed. […] The homogenate is transferred to a 2 mL tube and centrifuged at 1000 g for 10 minutes at 4° C. and the supernatant is collected and analyzed. Protein concentration is determined by the BCA assay using a 1:50 dilution. […]

[2] = plasma and brain unbound fractions of I-1 in nonhuman primates; format: in vitro ADME; conditions: nonhuman primate, Normal NHP (n = 3)
brain A1R/A3R = assay: estimated brain receptor occupancy of I-1 in neonatal pig efficacy studies; format: in vivo
Text: Receptor occupancy is a mass action relationship:
The percentage of a receptor occupied by an agonist or antagonist is a function of the drug concentration and the drug affinity for the receptor target. The challenge is that drug concentrations at the target site (in this case, brain, and CSF) can vary by species, as can affinity for the drug target. Affinity of I-1 for its receptor target can vary by as much as 5-fold between species. Accordingly, for each species, it is necessary to determine the I-1 affinity for its target as well as the concentration of I-1 at each administered dose in a relevant matrix.
Using this receptor occupancy estimate, we advanced to studies in neonatal pigs, targeting doses that would yield unbound brain and CSF concentrations that would provide a similar receptor occupancy to that associated with efficacy in the rodent models. In the pig, we had the advantage of conducting pharmacokinetic studies involving CSF collection, brain equilibrium dialysis to directly determine brain unbound extracellular fluid concentrations, plasma concentrations and finally total brain concentrations. […] This was a key study to validate the use of I-1 CSF concentrations to estimate brain receptor occupancy. In the pig efficacy studies, we achieved efficacy at estimated receptor occupancies of around 2%.

A3 receptor in the mouse = molecular target: T1, A3 receptor in the mouse (Mus musculus, UniProt Q61618); assay: affinity at mouse A3 receptor; format: binding
T1 sequence (Q61618 1-319): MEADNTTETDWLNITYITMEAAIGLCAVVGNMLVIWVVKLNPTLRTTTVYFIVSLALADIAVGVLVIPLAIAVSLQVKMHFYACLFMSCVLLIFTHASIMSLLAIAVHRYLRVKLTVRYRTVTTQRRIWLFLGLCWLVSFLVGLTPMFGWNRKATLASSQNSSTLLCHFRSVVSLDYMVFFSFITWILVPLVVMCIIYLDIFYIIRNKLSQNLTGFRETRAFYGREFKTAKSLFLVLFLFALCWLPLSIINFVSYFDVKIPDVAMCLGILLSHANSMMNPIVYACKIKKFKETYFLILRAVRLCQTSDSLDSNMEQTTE
Method: Similar competition binding assays may be conducted using HEK293 cell membranes expressing mARs using [^125I]I-AB-MECA to label A1 or A3ARs and [^3H]CGS21680 to label A2AARs. IC50 values were converted to Ki values using known methods. Nonspecific binding was determined in the presence of 100 μM NECA.

Q: With CSc1nc(N)c2ncn([C@H]3C(O)C(O)[C@]4(CO)C[C@H]34)c2n1 (stereo in doubt) [Compound I-1] as the compound, how does the “efficacy in mouse TBI model” value [1] read?
A: effective; also recorded: significant efficacy

Q: What about the fraction unbound ([2]; brain, read-out: Brain Unbound Fraction) of the same compound?
A: 0.56 ± 0.05

Q: And the fraction unbound ([2]; plasma, read-out: Plasma Unbound Fraction)?
A: 0.26 ± 0.05

Q: And the “estimated receptor occupancies at which efficacy was achieved” value (brain A1R/A3R)?
A: around 2%

Q: And the “difference in affinity between I-1 and Cl-IB-MECA” value (A3 receptor in the mouse)?
A: approximately 25,000 fold

— patent US20250177405A1, “METHODS OF TREATING NEUROLOGICAL AND CARDIOVASCULAR CONDITIONS” (ASTROCYTE PHARMACEUTICALS, INC., priority 2021, published 2025)
